Results taken from patent publication US10316057B2, “Tandem facial amphiphiles” (WISCONSIN ALUMNI RESEARCH FOUNDATION, priority 2011, dated 2019).

Experiments:
[1] = stated in the bR protocol; cited from earlier work
[2] = biological target: T1, Bacteriorhodopsin (bR) (Halobacterium salinarum, UniProt P02945); assay: Stabilization assay for bacteriorhodopsin (absorbance at 554 nm); settings: room temperature, 20 days; 0.2 wt % OTG+0.8 wt % TFA or 1.0 wt % OTG only
T1 construct: extract bR from the native purple membrane; endogenous in cells
T1 sequence (P02945 14-261 limits assumed): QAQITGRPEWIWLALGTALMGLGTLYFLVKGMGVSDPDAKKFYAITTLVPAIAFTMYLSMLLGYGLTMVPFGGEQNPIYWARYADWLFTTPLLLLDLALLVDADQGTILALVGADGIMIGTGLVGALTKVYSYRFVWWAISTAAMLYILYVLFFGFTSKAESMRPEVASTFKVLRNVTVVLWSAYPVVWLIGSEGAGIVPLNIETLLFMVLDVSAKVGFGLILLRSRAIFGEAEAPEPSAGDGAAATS
Description: Bacteriorhodopsin (bR) has been widely employed for assessment of new amphiphiles because this membrane protein is readily available, and stability can be assessed via spectrophotometry (absorbance at 554 nm). Following standard protocols (Bazzacco et al., Biomacromolecules 2009, 10, 3317-3326), 2.0 wt % octyl-β-D-thioglucoside (OTG) was used to extract bR from the native purple membrane. After removal of insoluble debris via ultracentrifugation, the bR solution was diluted with amphiphile-containing solutions to generate samples containing 0.2 wt % OTG+0.8 wt % TFA. A control sample had OTG added to give a total of 1.0 wt %. […] Parallel studies were carried out at different amphiphile concentrations as described in Example 3 below. DDM is not efficient at bR extraction from the native membrane but extracted bR can be stable in the presence of DDM (Milder et al., Biochemistry 1991, 30, 1751-1761).
The general procedure was followed according to the reported protocol of Bazzacco et al. (Biomacromolecules 10, 3317-3326 (2009)). Frozen aliquots of purple membranes containing bR at 184 μM were thawed and solubilized by incubation with octylthioglucoside (OTG) for 24 hr at 4° C. in a dark room. For the solubilization, OTG (CMC=0.28 wt %) was used at 2.0 wt % in 10 mM sodium phosphate (pH 6.9). […] BR stability in each TFA solutions was monitored by measuring absorbance at 554 nm for 20 days.

[3] = tested on: T2, LHI-RC superassembly; assay: Stabilization assay for R. capsulatus superassembly (A875/A680); set-up: species or system Rhodobacter capsulatus; settings: room temperature, 20 days, CMC+0.04 wt %, relative to DDM
T2 construct: The LHI-RC superassembly was extracted from native membranes with 1.0 wt % DDM; made in house; host or cells: Rhodobacter capsulatus U43[pUHTM86Bgl]; (lacks LHII), photosynthetic membranes
From the text: The promising results with bR stabilization led to investigating a more challenging system, the photosynthetic superassembly formed by the light harvesting I (LHI) and reaction center (RC) complexes from Rhodobacter capsulatus (Laible et al., Biochemistry 2003, 42, 1718-1730). This superassembly contains 30-40 protein molecules (five different components), and maintenance of native quaternary structure can be assessed via spectrophotometry. The LHI-RC superassembly was extracted from native membranes with 1.0 wt % DDM and purified with DDM at its CMC (0.009 wt %). […]
Resin-retaining spin columns (e.g., emptied His SpinTrap™ columns; GE Healthcare) were inserted into a 2 mL microcentrifuge tube and the samples were then loaded onto the column. […] The protein was collected by eluting with two 0.25 mL elution buffer aliquots (this buffer was identical to binding buffer with the addition to 1 M of imidazole; the pH of each solution was checked and readjusted to pH=7.8). […]
UV-Vis spectra of these solutions were measured in regular intervals. FIG. 9 illustrates the time course of stability of R. capsulatus superassembly, evaluated at room temperature. […] Absorbance ratio (A875/A680) was followed for the stability evaluation of the membrane protein. […] FIG. 10 illustrates the absorbance spectrum of R. capsulatus superassembly in TFA-1 (a,c) and DDM (b,d) at room temperature (˜23° C.). […]

| SMILES | CMC [1] [wt %] | bR stability over time [2] | stability of LHI-RC superassembly [3] |
| --- | --- | --- | --- |
| CCCCCCCCS[C@@H]1O[C@H](CO)[C@@H](O)[C@H](O)[C@H]1O [OTG, octyl-β-D-thioglucoside, reference compound] | 0.28 | almost completely denatured by day 10 |  |
| CCCCCCCCCCCC[N+](C)(C)[O-] [lauryldimethylamine oxide] |  |  | rapid degradation of the superassembly |
| CCCCCCCCO[C@@H]1O[C@H](CO)[C@@H](O)[C@H](O)[C@H]1O [octyl-glucoside] |  |  | rapid degradation of the superassembly |
